According to PubChem BioAssay AID2060508 (Molecular Pharmacology Branch, DTP, NCI, 2025):

Tested on: 454973-116-R2-J3-PDC spheroids, viability, % test/control
Test: Anticancer human tumor 454973-116-R2-J3-PDC patient-derived pancreatic carcinoma cell line growth inhibition [GQUAD]
Conditions: spheroids with HUVEC and MSC; for IC50: curve of first compound; for viability, T/C: stronger effect = lower value
Method in brief: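 Tumor cells were grown as complex spheroids with HUVEC endothelial cells and mesenchymal stem cells as stroma. G-quadruplex stabilizers were combined with targeted agents over half-log dilutions from near the clinical Cmax, or from 10 microM.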

[1] = second compound 0.0316 µM, first compound 0.0316 µM
[2] = second compound 0.0316 µM, first compound 0.1 µM
[3] = second compound 0.0316 µM, first compound 0.316 µM
[4] = second compound 0.0316 µM, first compound 1 µM
[5] = second compound 0.0316 µM, first compound 3.16 µM
[6] = second compound 0.0316 µM, first compound 10 µM
[7] = second compound 0.1 µM, first compound 0.0316 µM
[8] = second compound 0.1 µM, first compound 0.1 µM
[9] = second compound 0.1 µM, first compound 0.316 µM
[10] = second compound 0.1 µM, first compound 1 µM
[11] = second compound 0.1 µM, first compound 3.16 µM
[12] = second compound 0.1 µM, first compound 10 µM
[13] = second compound 0.316 µM, first compound 0.0316 µM
[14] = second compound 0.316 µM, first compound 0.1 µM
[15] = second compound 0.316 µM, first compound 0.316 µM
[16] = second compound 0.316 µM, first compound 1 µM
[17] = second compound 0.316 µM, first compound 3.16 µM
[18] = second compound 0.316 µM, first compound 10 µM
[19] = second compound 1 µM, first compound 0.0316 µM
[20] = second compound 1 µM, first compound 0.1 µM
[21] = second compound 1 µM, first compound 0.316 µM
[22] = second compound 1 µM, first compound 1 µM
[23] = second compound 1 µM, first compound 3.16 µM
[24] = second compound 1 µM, first compound 10 µM
[25] = second compound 3.16 µM, first compound 0.0316 µM
[26] = second compound 3.16 µM, first compound 0.1 µM
[27] = second compound 3.16 µM, first compound 0.316 µM
[28] = second compound 3.16 µM, first compound 1 µM
[29] = second compound 3.16 µM, first compound 3.16 µM
[30] = second compound 3.16 µM, first compound 10 µM
[31] = second compound 10 µM, first compound 0.0316 µM
[32] = second compound 10 µM, first compound 0.1 µM
[33] = second compound 10 µM, first compound 0.316 µM
[34] = second compound 10 µM, first compound 1 µM
[35] = second compound 10 µM, first compound 3.16 µM
[36] = second compound 10 µM, first compound 10 µM
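Also: spheroids exposed to compounds for seven days.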
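For viability, T/C in this document: 100% = DMSO vehicle control viability.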

With `C=CC(=O)N1CCN(c2nc(=O)n(-c3c(C)ccnc3C(C)C)c3nc(-c4c(O)cccc4F)c(F)cc23)C(C)C1` (centres undefined) + Cc1cnc(CNC(=O)c2c(=O)c3ccc(N4CCCN(C)CC4)nc3n3c2sc2ccccc23)cn1 the IC50 (second compound 0.0316 µM) was > 10 µM, the IC50 (second compound 0.1 µM) was > 10 µM and the IC50 (second compound 0.316 µM) was > 10 µM. For the same molecule, the IC50 (second compound 1 µM) was > 10 µM, the IC50 (second compound 3.16 µM) was > 10 µM and the IC50 (second compound 10 µM) was < 0.0316 µM. It also gave a viability, T/C [1] of 100%, a viability, T/C [2] of 94.2% and a viability, T/C [3] of 105%. For the same molecule, the viability, T/C [4] was 116%, the viability, T/C [5] was 118% and the viability, T/C [6] was 118%. The viability, T/C [7] was 78.1%, the viability, T/C [8] was 80.1% and the viability, T/C [9] was 87.6%. The viability, T/C [10] was 96.9%, the viability, T/C [11] was 104% and the viability, T/C [12] was 97.1%. The viability, T/C [13] was 79.2%, the viability, T/C [14] was 79.6% and the viability, T/C [15] was 71.1%. For the same molecule, the viability, T/C [16] was 78.5%, the viability, T/C [17] was 85.8% and the viability, T/C [18] was 76.7%. The viability, T/C [19] was 73.9%, the viability, T/C [20] was 72.4% and the viability, T/C [21] was 75.2%. The viability, T/C [22] was 81.1%, the viability, T/C [23] was 90.8% and the viability, T/C [24] was 73.4%. The viability, T/C [25] was 59.2%, the viability, T/C [26] was 64.3% and the viability, T/C [27] was 78.5%. It also gave a viability, T/C [28] of 74.4%, a viability, T/C [29] of 86.6% and a viability, T/C [30] of 76.7%. It also gave a viability, T/C [31] of 0.33%, a viability, T/C [32] of 19.3% and a viability, T/C [33] of 58.5%. It also gave a viability, T/C [34] of 70.6%, a viability, T/C [35] of 0.37% and a viability, T/C [36] of 1.42%.
In the case of `CC(C)n1c(=O)n(C)c2cnc3cc(F)c(-c4ccc(OCCCN5CCCCC5)nc4)cc3c21` + Cc1cnc(CNC(=O)c2c(=O)c3ccc(N4CCCN(C)CC4)nc3n3c2sc2ccccc23)cn1, the IC50 (second compound 0.0316 µM) is reported as > 10 µM, the IC50 (second compound 0.1 µM) is reported as < 0.0316 µM and the IC50 (second compound 0.316 µM) is reported as < 0.0316 µM. For the same molecule, the IC50 (second compound 1 µM) was 0.0397 µM, the IC50 (second compound 3.16 µM) was > 10 µM and the IC50 (second compound 10 µM) was < 0.0316 µM. For the same molecule, the viability, T/C [1] was 76.6%, the viability, T/C [2] was 53.5% and the viability, T/C [3] was 59.6%. For the same molecule, the viability, T/C [4] was 52.9%, the viability, T/C [5] was 56.8% and the viability, T/C [6] was 52.3%. The viability, T/C [7] was 43%, the viability, T/C [8] was 35.6% and the viability, T/C [9] was 36.5%. For the same molecule, the viability, T/C [10] was 33.6%, the viability, T/C [11] was 39.5% and the viability, T/C [12] was 32.7%. It also gave a viability, T/C [13] of 45.5%, a viability, T/C [14] of 49% and a viability, T/C [15] of 38.7%. It also gave a viability, T/C [16] of 38.8%, a viability, T/C [17] of 40.3% and a viability, T/C [18] of 33.7%. The viability, T/C [19] was 52.4%, the viability, T/C [20] was 48.4% and the viability, T/C [21] was 46.9%. It also gave a viability, T/C [22] of 48.7%, a viability, T/C [23] of 51.8% and a viability, T/C [24] of 48.2%. For the same molecule, the viability, T/C [25] was 53.7%, the viability, T/C [26] was 65.8% and the viability, T/C [27] was 56.1%. The viability, T/C [28] was 57.4%, the viability, T/C [29] was 58.3% and the viability, T/C [30] was 44.4%. The viability, T/C [31] was 0.28%, the viability, T/C [32] was 0.31% and the viability, T/C [33] was 14%. The viability, T/C [34] was 0.33%, the viability, T/C [35] was 0.3% and the viability, T/C [36] was 0.25%.
